Laboratory results from publication PMC9386018, “A lymphatic-absorbed multi-targeted kinase inhibitor for myelofibrosis therapy” (Nature Communications, 2022).

Test system: pAKT (pS473) in splenocytes
Test: MPL^W515L MF mouse model: pAKT in splenocytes by flow cytometry
Assay type: in vivo
Conditions: MPL^W515L mice, oral 400 mg kg^−1 daily, 28 d
Protocol: The human megakaryoblastic cell line, SET-2 (ATCC), was maintained in RPMI 1640 supplemented with 20% FBS and incubated for 16 h at 10^6 cells mL^−1 with LP-182 or vehicle (DMSO; dimethyl sulfoxide), then washed in ice-cold PBS, and collected for flow cytometry analysis. Single-cell suspensions of mouse spleen were prepared from MPL^W515L MF mice (below) in RPMI 1640 supplemented with 5% FCS. Red blood cells were lysed by ammonium chloride-mediated red cell lysis (RCL) buffer and passed through a nylon mesh, and then cells were counted. For intracellular phospho-protein staining, SET-2 or spleen cells were fixed and then permeabilized using BD Phospho-flow fixation buffer and Perm-Buffer III (BD biosciences) according to the manufacturer’s protocol. Intracellular phospho-protein staining was performed using fluorochrome-conjugated antibodies, pAKT (pS473)-Alexa Fluor 647 (MB89-61) or pERK1/2 (pT202/pY204)-Alexa Fluor 647 (20 A). […] Flow cytometry was performed on a FACS Fortessa (Becton, Dickinson and Co.) using FACSDiVa software, and data analyzed using FlowJo software (Tree Star). […]
Generation of the MPL^W515L mutant MF mouse model was similar to previously described methods. […] Development of MF was evaluated by spleen volumes using MRI beginning ~14 d following bone marrow transplantation (BMT) as outlined below, continuing weekly until end of the study. […]

SMILES: O=C(NOCCOCCOCCOCCC(=O)N1CCN(c2cnc3ccc(-c4cnc(Cl)c(NS(=O)(=O)c5ccc(F)cc5)c4)cc3n2)CC1)c1ccc(F)c(F)c1Nc1ccc(I)cc1F [LP-182, N-(2-(2-(2-(3-(4-(7-(6-chloro-5-((4-fluorophenyl)sulfonamido)pyridin-3-yl)quinoxalin-2-yl)piperazin-1-yl)-3-oxopropoxy)ethoxy)ethoxy)ethoxy)-3,4-difluoro-2-((2-fluoro-4-iodophenyl)amino)benzamide]
- active AKT level in splenocytes: reduced active AKT and ERK1/2 levels to those comparable to healthy control mice
